Experimental data reported in US20120196899A1, “METHODS AND PRODUCTS FOR TREATING INFLAMMATION” (Rock Creek Pharmaceuticals, Inc., priority 2010, published 2012).
“And” between values parts separate entries of the source, which are not always exact repeats. Identical values can stand only once.

Assays:
[1] = Body weights, weight gain and food consumption over 14 days after single i.v. dose; assay type: in vivo, Sprague-Dawley rats; details: for Mean food consumption/day / Mean weigth increase by day 14 / day 13 B.W. / day 14 B.W. / B.W. day 1 / B.W. day 2 / B.W. day 3 / B.W. day 4 / B.W. day 5 / B.W. day 6 / B.W. day 7 / B.W. day 8 / B.W. day 9 / B.W. day 10 / B.W. day 11 / B.W. day 12: nicotine 0.75 mg/kg single i.v.; for day 13 B.W. / day 14 B.W. / B.W. day 1 / B.W. day 2 / B.W. day 3 / B.W. day 4 / B.W. day 5 / B.W. day 6 / B.W. day 7 / B.W. day 8 / B.W. day 9 / B.W. day 10 / B.W. day 11 / B.W. day 12 / Average Daily Food Consumption per Rat: tartrate; for B.W. day 1 / B.W. day 2 / B.W. day 3 / B.W. day 4 / B.W. day 5 / B.W. day 6 / B.W. day 7 / B.W. day 8 / B.W. day 9 / B.W. day 10 / B.W. day 11 / B.W. day 12: individual animals; for Average Daily Food Consumption per Rat: nicotine 0.75 mg/kg, per cage (cage 1, 2)
Protocol: Body weight and food consumption was measured daily for 14 days. On day 15, urine was collected on all surviving animals. The animals were euthanized and bled via cardiac puncture, and blood was collected for analysis. Tissues were collected, weighed, evaluated for gross abnormalities, and stored in 10% neutral-buffered formalin.
All animals were observed daily.

[2] = Hematology, day 15; assay type: in vivo, Sprague-Dawley rats; details: for EOSINOPHIL / HCT / HGB / LYMPHOCYTE / MCH / MCHC / MCV / MONOCYTE / NEUTROPHIL SEG / PLATELET COUNT / RBC / RE[…] / WBC: 0.75 mg/kg, group mean
Excerpt: On day 15, urine was collected on all surviving animals for urinalysis. The animals were euthanized and bled via cardiac puncture. Blood was collected for hematology, clinical chemistry, and coagulation analysis. Tissues were collected, weighed, and stored in 10% neutral-buffered formalin for possible future analysis.

[3] = test system: TNFα-induced NFκB activity; experiment: NFκB luciferase assay (inhibition of TNFα-induced NFκB activity) in HEK293 reporter cells; assay type: cell-based, Human; details: HEK293 reporter cells challenged with TNFα for three hours
Protocol: The smokeless tobacco used in these experiments was plain long-leaf Copenhagen tobacco purchased from a local vendor. Crude extract was extracted with methanol and water and clarified by centrifugation and filtration. The alkaloid extract was prepared from sodium hydroxide and methanol extraction, organic phase separation and purification. All treatment samples were prepared as a function of weight (μg/ml), and all samples were diluted in DMSO.
Human […] kidney cells (HEK293) transfected with an NFκB luciferase reporter were challenged with TNFα for three hours, then samples were applied to the challenged cells.

[4] = Physical signs after single i.v. dose (Example 3); assay type: in vivo, Sprague-Dawley rats; details: nicotine 0.4 mg/kg single i.v.; all males and two females
Protocol: Four aliquots of each dose level formulation were collected and stored at −80° C. The test compound, corresponding dose level, number of animals, and sample collection times for Phase I of the study are shown in Table 3. The test compound, corresponding dose level, number of animals, and sample collection times for Phase II of the study are shown in Table 4. The physical signs of each animal were monitored following administration of the test compound.

CN1CCCC1c1cccnc1.O=C(O)C(O)C(O)C(=O)O (single isomer, unassigned; (-)) [Nicotine, (−) Nicotine hydrogen tartrate, reference compound]
Mean food consumption/day ([1]; Female): 20.6 g | Mean weigth increase by day 14 ([1]; Female): 40.8 g | Mean food consumption/day ([1]; Male): 26.4 g | Mean weigth increase by day 14 ([1]; Male): 98.5 g | day 13 B.W. ([1]; individual female rats): 232.6 g and 251.8 g and 227.3 g | day 14 B.W. ([1]; individual female rats): 230.4 g and 249 g and 229 g | day 13 B.W. ([1]; individual male rats): 330 g and 312.3 g and 292.4 g and 299.4 g | day 14 B.W. ([1]; individual male rats): 339.2 g and 316.1 g and 297.6 g and 305 g | B.W. day 1 ([1]; day 1, female rats): 191.6 g and 206.1 g and 192.8 g | B.W. day 1 ([1]; day 1, male rats): 227 g and 228 g and 223 g and 219 g | B.W. day 2 ([1]; day 2, female rats): 190.5 g and 213.4 g and 195.7 g | B.W. day 2 ([1]; day 2, male rats): 234.9 g and 239.1 g and 229.5 g and 229.1 g | B.W. day 3 ([1]; day 3, female rats): 198 g and 217.1 g and 199.1 g | B.W. day 3 ([1]; day 3, male rats): 243 g and 245.1 g and 241.1 g and 238.4 g | B.W. day 4 ([1]; day 4, female rats): 207.8 g and 223.8 g and 205.6 g | B.W. day 4 ([1]; day 4, male rats): 260.5 g and 263.4 g and 257.6 g and 252.9 g | B.W. day 5 ([1]; day 5, female rats): 212.3 g and 226.3 g and 206.4 g | B.W. day 5 ([1]; day 5, male rats): 272.1 g and 269.1 g and 260.7 g and 258.7 g | B.W. day 6 ([1]; day 6, female rats): 207 g and 228.9 g and 205.5 g | B.W. day 6 ([1]; day 6, male rats): 259 g and 275.4 g and 270 g and 262.8 g | B.W. day 7 ([1]; day 7, female rats): 213 g and 240.1 g and 218.3 g | B.W. day 7 ([1]; day 7, male rats): 279.9 g and 295.8 g and 288 g and 277.8 g | B.W. day 8 ([1]; day 8, female rats): 218 g and 237.4 g and 217.4 g | B.W. day 8 ([1]; day 8, male rats): 284 g and 293.7 g and 285.6 g and 278 g | B.W. day 9 ([1]; day 9, female rats): 219.1 g and 236.4 g and 213.2 g | B.W. day 9 ([1]; day 9, male rats): 274.9 g and 303.5 g and 285.6 g and 274.6 g | B.W. day 10 ([1]; day 10, female rats): 221.8 g and 240.1 g and 220.5 g | B.W. day 10 ([1]; day 10, male rats): 286.1 g and 314.2 g and 301 g and 283.4 g | B.W. day 11 ([1]; day 11, female rats): 222.8 g and 244.5 g and 226 g | B.W. day 11 ([1]; day 11, male rats): 292.2 g and 317.7 g and 300.1 g and 291.5 g | B.W. day 12 ([1]; day 12, female rats): 232.1 g and 248.9 g and 227.7 g | B.W. day 12 ([1]; day 12, male rats): 290.7 g and 329.5 g and 303 g and 287.3 g | Average Daily Food Consumption per Rat ([1]; female, day 1): 23.7 grams and 14.8 grams | Average Daily Food Consumption per Rat ([1]; female, day 2): 18.4 grams and 24.9 grams | Average Daily Food Consumption per Rat ([1]; female, day 3): 22.2 grams and 22.3 grams | Average Daily Food Consumption per Rat ([1]; female, day 4): 19.4 grams and 15.8 grams | Average Daily Food Consumption per Rat ([1]; female, day 5): 18.7 grams and 16.2 grams | Average Daily Food Consumption per Rat ([1]; female, day 6): 20.0 grams and 17.2 grams | Average Daily Food Consumption per Rat ([1]; female, day 7): 19.4 grams and 21.7 grams | Average Daily Food Consumption per Rat ([1]; female, day 8): 20.1 grams and 20.6 grams | Average Daily Food Consumption per Rat ([1]; female, day 9): 24.4 grams and 21.5 grams | Average Daily Food Consumption per Rat ([1]; female, day 10): 22.6 grams and 20.4 grams | Average Daily Food Consumption per Rat ([1]; female, day 11): 20.4 grams and 20.3 grams | Average Daily Food Consumption per Rat ([1]; female, day 12): 22.5 grams and 21.7 grams | Average Daily Food Consumption per Rat ([1]; female, day 13): 23.7 grams and 21.2 grams | Average Daily Food Consumption per Rat ([1]; female, day 14): 24.4 grams and 19.6 grams | Average Daily Food Consumption per Rat ([1]; males, day 1): 20.8 grams and 19.3 grams | Average Daily Food Consumption per Rat ([1]; males, day 2): 26.2 grams and 23.5 grams | Average Daily Food Consumption per Rat ([1]; males, day 3): 26.6 grams and 26.2 grams | Average Daily Food Consumption per Rat ([1]; males, day 4): 26.2 grams and 23.7 grams | Average Daily Food Consumption per Rat ([1]; males, day 5): 25.1 grams and 21.9 grams | Average Daily Food Consumption per Rat ([1]; males, day 6): 23.8 grams and 25.9 grams | Average Daily Food Consumption per Rat ([1]; males, day 7): 26.5 grams and 27.9 grams | Average Daily Food Consumption per Rat ([1]; males, day 8): 24.0 grams and 28.2 grams | Average Daily Food Consumption per Rat ([1]; males, day 9): 27.3 grams and 26.1 grams | Average Daily Food Consumption per Rat ([1]; males, day 10): 29.6 grams and 30.9 grams | Average Daily Food Consumption per Rat ([1]; males, day 11): 30.1 grams and 29.1 grams | Average Daily Food Consumption per Rat ([1]; males, day 12): 26.5 grams and 23.4 grams | Average Daily Food Consumption per Rat ([1]; males, day 13): 31.9 grams and 28.4 grams | Average Daily Food Consumption per Rat ([1]; males, day 14): 32.7 grams and 26.4 grams | EOSINOPHIL ([2]; female): 0.0% | HCT ([2]; female): 46.7% | HGB ([2]; female): 16.0 g/dL | LYMPHOCYTE ([2]; female): 86.3% | MCH ([2]; female): 19.9 pg | MCHC ([2]; female): 34.2% | MCV ([2]; female): 58.7 fL | MONOCYTE ([2]; female): 1.0% | NEUTROPHIL SEG ([2]; female): 12.7% | PLATELET COUNT ([2]; female): 1.363e+06 µL⁻¹ | RBC ([2]; female): 8e+06 µL⁻¹ | RE[…] ([2]; female): 5.1% | WBC ([2]; female): 10200 µL⁻¹ | mean corpuscular volume (MCV) and mean corpuscular hemoglobin (MCH) ([2]; females, anatabine […], nicotine 0.75 mg/kg single i.v.): small, but statistically significant decreases | EOSINOPHIL ([2]; male): 0.0% | HCT ([2]; male): 46.6% | HGB ([2]; male): 15.8 g/dL | LYMPHOCYTE ([2]; male): 85.8% | MCH ([2]; male): 20.9 pg | MCHC ([2]; male): 34.0% | MCV ([2]; male): 61.5 fL | MONOCYTE ([2]; male): 2.5% | NEUTROPHIL SEG ([2]; male): 11.8% | PLATELET COUNT ([2]; male): 1.3558e+06 µL⁻¹ | RBC ([2]; male): 7.6e+06 µL⁻¹ | RE[…] ([2]; male): 5.2% | WBC ([2]; male): 11400 µL⁻¹ | TNFα-induced NFκB-mediated transcription of luciferase [3]: reduce TNFα-induced NFκB-mediated transcription | physical signs [4]: experienced tremors immediately post dose
